Assay results taken from ChEMBL document CHEMBL1201862, “PubChem BioAssay data set” (2004).
Calls of active or inactive are those of the source.

Key:
Escherichia coli = assay: microbe, parasite or virus in culture
[1] = target: Voltage-gated inwardly rectifying potassium channel KCNH2 (Homo sapiens, UniProt Q12809); details: Potency;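 note: confirmatory quantitative high-throughput screen measuring inhibition of hERG channel activity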
CAAX prenyl protease 2 = CAAX prenyl protease 2 (Homo sapiens, UniProt Q9Y256); assay: human Rce1 protease inhibitors, dose response, biochemical, yeast membranes, quenched-peptide fluorescence, cherry-pick (AID 588849)
CAAX prenyl protease 2, sequence (Q9Y256 whole entry): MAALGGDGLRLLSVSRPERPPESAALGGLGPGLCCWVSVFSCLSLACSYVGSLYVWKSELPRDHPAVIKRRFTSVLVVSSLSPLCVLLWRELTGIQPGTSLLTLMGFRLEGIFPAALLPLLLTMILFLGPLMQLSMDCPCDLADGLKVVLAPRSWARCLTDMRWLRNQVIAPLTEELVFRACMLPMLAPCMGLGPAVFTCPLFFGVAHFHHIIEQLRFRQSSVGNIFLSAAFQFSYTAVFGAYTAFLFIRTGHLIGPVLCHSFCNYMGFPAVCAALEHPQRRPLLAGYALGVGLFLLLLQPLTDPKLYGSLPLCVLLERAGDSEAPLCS

[2] = HepG2 cell cytotoxicity, dose response, cytotoxicity control for Shn3 inhibitor project, CellTiter-Glo, cherry-picked (AID 624134); assay type: functional, cell-based
Protein skinhead-1 = target: T1, Protein skinhead-1 (Caenorhabditis elegans, UniProt P34707); assay type: functional
T1 sequence (P34707 whole entry): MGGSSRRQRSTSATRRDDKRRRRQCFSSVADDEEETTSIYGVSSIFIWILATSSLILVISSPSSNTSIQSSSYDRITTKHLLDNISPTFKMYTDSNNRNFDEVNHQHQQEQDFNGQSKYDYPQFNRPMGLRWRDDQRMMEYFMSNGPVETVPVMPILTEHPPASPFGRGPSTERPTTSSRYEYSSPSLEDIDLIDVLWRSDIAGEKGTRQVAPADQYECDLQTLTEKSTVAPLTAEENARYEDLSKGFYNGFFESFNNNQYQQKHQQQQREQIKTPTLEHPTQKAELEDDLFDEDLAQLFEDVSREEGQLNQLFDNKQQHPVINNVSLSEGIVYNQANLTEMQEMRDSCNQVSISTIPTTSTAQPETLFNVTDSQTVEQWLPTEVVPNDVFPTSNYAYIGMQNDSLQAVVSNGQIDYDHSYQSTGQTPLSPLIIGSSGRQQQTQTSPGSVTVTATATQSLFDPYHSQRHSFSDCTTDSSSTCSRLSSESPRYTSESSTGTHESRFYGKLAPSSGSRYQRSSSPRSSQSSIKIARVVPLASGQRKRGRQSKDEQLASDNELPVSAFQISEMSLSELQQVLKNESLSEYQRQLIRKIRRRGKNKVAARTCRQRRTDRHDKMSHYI

INS1 = assay: beta cell apoptosis inhibitors, cytokine rescue, dose response, luminescence, retest (AID 449756); assay type: functional, cell-based; details: Rattus norvegicus;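 note: cell death triggered by IL-1 beta plus TNF-alpha plus IFN-gamma mixture; protective hits raise ATP signal compared with cytokine alone wells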
cells [3] = assay type: functional, cell-based
BJ [4] = assay: cytotoxicity toward BJ-TERT fibroblasts, dose response, cell-based, RAS-independent, luminescence (AID 1933); assay type: functional; details: Homo sapiens
[5] = Vero E6 cell cytotoxicity, dose response, cytotoxicity control for non-replicating M. tuberculosis project, secondary assay (AID 492998); assay type: functional, VeroE6; details: Vero C1008
[6] = target: T2, Kappa-type opioid receptor (Homo sapiens, UniProt P41145); assay type: functional
T2 sequence (P41145 whole entry): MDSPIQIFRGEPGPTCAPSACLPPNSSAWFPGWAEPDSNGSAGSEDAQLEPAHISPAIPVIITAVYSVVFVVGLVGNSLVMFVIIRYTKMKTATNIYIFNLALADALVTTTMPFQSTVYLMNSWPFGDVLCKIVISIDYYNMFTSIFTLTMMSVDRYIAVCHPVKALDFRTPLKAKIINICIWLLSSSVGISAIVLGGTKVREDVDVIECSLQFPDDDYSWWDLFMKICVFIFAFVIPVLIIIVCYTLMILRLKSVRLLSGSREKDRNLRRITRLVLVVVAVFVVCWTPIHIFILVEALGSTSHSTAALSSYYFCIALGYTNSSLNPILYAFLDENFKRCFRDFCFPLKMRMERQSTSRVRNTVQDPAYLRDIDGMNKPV

[7] = target: T2, Kappa-type opioid receptor; assay type: functional; remark: listed apart in the source
[8] = target: Type-1 angiotensin II receptor (Homo sapiens, UniProt P30556); assay: AT1 receptor antagonists, dose response, selectivity assay for APJ receptor antagonist project, cell-based, uHTS hits (AID 463214); assay type: functional;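 note: antagonist potency against angiotensin II stimulated AT1 response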
Type-1 angiotensin II receptor, sequence (P30556 whole entry): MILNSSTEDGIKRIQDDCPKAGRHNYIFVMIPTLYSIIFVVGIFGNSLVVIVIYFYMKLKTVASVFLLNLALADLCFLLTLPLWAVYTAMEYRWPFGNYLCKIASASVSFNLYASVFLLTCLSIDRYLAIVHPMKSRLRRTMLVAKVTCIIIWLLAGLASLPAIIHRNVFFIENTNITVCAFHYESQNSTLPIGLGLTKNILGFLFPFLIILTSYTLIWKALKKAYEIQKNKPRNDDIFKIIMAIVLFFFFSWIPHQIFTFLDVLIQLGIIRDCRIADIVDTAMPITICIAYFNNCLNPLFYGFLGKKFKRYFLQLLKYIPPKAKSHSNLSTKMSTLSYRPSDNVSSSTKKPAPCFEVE

Vero [9] = assay: cells; assay type: functional, cell-based; details: Chlorocebus sabaeus
cells [10] = assay type: functional
Vero [11] = assay: cells; assay type: functional; details: Chlorocebus sabaeus
[12] = HepG2 cell cytotoxicity, dose response, cytotoxicity control, plate reader, cherry-pick, antagonist series (AID 743416); assay type: functional, cell-based
[13] = THP-1 cell cytotoxicity, dose response, cytotoxicity control for non-replicating M. tuberculosis project (AID 489025); assay type: functional
BJ [14] = assay: cells; assay type: functional, cell-based; details: Homo sapiens
Beta-galactosidase [15] = target: T3, Beta-galactosidase (Escherichia coli, UniProt Q8VNN2); assay type: functional
T3 sequence (Q8VNN2 whole entry): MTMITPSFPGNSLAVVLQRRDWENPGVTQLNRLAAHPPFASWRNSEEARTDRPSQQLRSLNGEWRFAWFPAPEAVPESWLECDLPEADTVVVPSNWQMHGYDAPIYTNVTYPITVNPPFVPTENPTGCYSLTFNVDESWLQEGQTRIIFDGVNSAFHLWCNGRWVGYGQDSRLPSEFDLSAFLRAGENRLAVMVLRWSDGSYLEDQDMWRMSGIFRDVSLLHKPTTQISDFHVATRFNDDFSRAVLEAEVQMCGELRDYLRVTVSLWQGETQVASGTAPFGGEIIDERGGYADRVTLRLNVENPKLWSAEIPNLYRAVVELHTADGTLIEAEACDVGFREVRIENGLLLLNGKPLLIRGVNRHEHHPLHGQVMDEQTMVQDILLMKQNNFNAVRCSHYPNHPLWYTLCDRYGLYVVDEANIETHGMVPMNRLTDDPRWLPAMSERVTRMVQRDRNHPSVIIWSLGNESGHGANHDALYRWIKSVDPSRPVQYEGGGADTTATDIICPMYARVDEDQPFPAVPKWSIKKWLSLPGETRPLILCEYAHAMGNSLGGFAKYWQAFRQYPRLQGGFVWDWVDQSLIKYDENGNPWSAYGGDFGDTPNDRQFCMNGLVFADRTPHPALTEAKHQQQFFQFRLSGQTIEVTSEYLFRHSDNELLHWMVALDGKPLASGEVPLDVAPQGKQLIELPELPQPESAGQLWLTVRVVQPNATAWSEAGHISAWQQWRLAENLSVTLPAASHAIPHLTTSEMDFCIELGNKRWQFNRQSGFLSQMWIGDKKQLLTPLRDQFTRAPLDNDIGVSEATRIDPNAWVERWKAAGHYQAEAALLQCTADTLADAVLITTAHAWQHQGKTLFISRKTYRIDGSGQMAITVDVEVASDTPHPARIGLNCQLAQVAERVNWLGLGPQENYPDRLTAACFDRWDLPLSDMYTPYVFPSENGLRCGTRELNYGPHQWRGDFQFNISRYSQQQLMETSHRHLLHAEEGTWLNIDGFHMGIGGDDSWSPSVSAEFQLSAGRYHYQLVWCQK

[16] = HepG2 cell cytotoxicity, dose response, cytotoxicity control for non-replicating M. tuberculosis project (AID 489018); assay type: functional; details: Mycobacterium tuberculosis
[17] = control 3'UTR Renilla luciferase suppression, dose response, counter-screen for Shn3 inhibitor project, cell-based, Clone20-Shn3RL, cherry-picked (AID 624133); assay type: functional
[18] = A549 cell cytotoxicity, dose response, cytotoxicity control, plate reader, cherry-pick, antagonist series (AID 743412); assay type: functional, cell-based
[19] = Shn3 3'UTR reporter inhibitors, dose response, cell-based, Clone20 osteoblasts, firefly luciferase, cherry-picked (AID 624132); assay type: functional;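 note: firefly luciferase luminescence from reporter carrying the Shn3 3'UTR in osteoblasts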
[20] = LGR2 antagonists, dose response, cell-based, HEK293, CRE-luciferase reporter, cherry pick, set 2 (AID 743343); assay type: functional;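 note: transfected cells were stimulated with diluted bursicon conditioned medium after compound addition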
Beta-galactosidase [21] = target: T3, Beta-galactosidase; assay: PubChem AID 485352; assay type: functional
cells [22] = assay type: functional, cell-based; remark: listed apart in the source
[23] = cytotoxicity toward DRD oncogenic fibroblasts, dose response, cell-based, non-viral oncogenic, luminescence (AID 1934); assay type: functional; details: Homo sapiens
[24] = HEK293 cell cytotoxicity, dose response, cytotoxicity control, plate reader, cherry-picked samples (AID 743446); assay type: functional, cell-based
BJ [25] = assay: cytotoxicity toward BJ-TERT-LT-ST fibroblasts, dose response, cell-based, RAS-independent, luminescence (AID 1935); assay type: functional; details: Homo sapiens;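 note: BJ fibroblasts immortalized with TERT plus LT and ST oncogenes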
[26] = MC4R antagonists, dose response, counter-screen for LGR2 antagonist project, cell-based, plate reader, cherry pick (AID 743444); assay type: functional;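 note: transfected HEK 293 cells stimulated with alpha-MSH peptide; potency of inhibitors of the alpha-MSH evoked signal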
[27] = target: 5-hydroxytryptamine receptor 5A (Homo sapiens, UniProt P47898); assay: Counterscreen for agonists of OPRM1-OPRD1 heterodimerization: luminescence-based cell-based high throughput dose response assay to identify agonists of 5-hydroxytryptamine (serotonin) 5A receptor (HTR5A). [Related pubchem assays (depositor defined):AID504326, AID504355, AID504692, AID504904, AID504905]; assay type: functional
5-hydroxytryptamine receptor 5A, sequence (P47898 whole entry): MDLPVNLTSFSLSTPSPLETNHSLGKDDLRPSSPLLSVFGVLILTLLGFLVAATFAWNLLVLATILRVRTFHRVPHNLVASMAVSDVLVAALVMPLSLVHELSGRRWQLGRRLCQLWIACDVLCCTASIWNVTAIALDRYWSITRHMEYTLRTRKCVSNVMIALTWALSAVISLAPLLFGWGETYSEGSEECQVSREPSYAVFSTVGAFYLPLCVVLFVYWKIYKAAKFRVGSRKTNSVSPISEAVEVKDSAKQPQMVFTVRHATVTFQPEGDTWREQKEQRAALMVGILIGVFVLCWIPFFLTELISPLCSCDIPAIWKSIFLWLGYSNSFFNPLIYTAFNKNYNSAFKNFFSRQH

Mu-type opioid receptor = Mu-type opioid receptor (Homo sapiens, UniProt P35372); assay: (§1) Counterscreen for agonists of heterodimerization of the mu 1 (OPRM1) and delta 1 (OPRD1) opioid receptors: Luminescence-based cell-based high throughput dose response assay to identify agonists of OPRM1 homodimerization.; assay type: functional
Mu-type opioid receptor, sequence (P35372 whole entry): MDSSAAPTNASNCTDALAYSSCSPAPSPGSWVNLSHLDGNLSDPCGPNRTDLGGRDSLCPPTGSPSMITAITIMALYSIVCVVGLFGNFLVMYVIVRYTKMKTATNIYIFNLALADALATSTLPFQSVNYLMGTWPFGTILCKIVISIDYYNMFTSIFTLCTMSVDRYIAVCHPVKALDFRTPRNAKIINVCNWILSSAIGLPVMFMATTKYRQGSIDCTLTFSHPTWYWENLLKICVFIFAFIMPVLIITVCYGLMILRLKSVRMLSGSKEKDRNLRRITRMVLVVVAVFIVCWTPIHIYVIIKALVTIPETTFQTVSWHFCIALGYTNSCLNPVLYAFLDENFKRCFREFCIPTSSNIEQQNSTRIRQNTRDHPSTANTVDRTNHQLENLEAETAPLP

[28] = target: Delta-type opioid receptor (Homo sapiens, UniProt P41143); assay: as §1, with “of OPRD1” for “of OPRM1”, “homodimerization. [Related pubchem assays (depositor defined):AID504326, AID504355, AID504692, AID504904, AID504905]” for “homodimerization.”; assay type: functional
Delta-type opioid receptor, sequence (P41143 whole entry): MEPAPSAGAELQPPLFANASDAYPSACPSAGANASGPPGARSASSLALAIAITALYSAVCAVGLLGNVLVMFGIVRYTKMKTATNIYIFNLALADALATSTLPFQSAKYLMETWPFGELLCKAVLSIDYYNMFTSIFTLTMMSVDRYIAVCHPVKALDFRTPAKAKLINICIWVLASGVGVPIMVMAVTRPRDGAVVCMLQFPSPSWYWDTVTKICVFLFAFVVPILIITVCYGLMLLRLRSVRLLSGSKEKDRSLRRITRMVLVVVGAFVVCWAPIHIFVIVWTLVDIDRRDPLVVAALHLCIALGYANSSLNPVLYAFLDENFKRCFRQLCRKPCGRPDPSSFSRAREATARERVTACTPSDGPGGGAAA

[29] = test system: Streptococcus sp. 'group A'; assay: growth inhibition of control SK(-) GAS strain, dose response, counter-screen for streptokinase expression inhibitor project, luminescence, kanamycin, BacTiterGlo, confirmation (AID 1900); assay type: functional, organism-based
Streptokinase A = target: T4, Streptokinase A (Streptococcus pyogenes serotype M1, UniProt P10520); assay: S. pyogenes streptokinase expression inhibitors, potency, dose response, plasminogen activation absorbance, OD405 (AID 1914); assay type: functional, Streptococcus pyogenes M1 GAS;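 note: secreted streptokinase activity via plasminogen activation per viability signal from cell pellet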
T4 sequence (P10520 whole entry): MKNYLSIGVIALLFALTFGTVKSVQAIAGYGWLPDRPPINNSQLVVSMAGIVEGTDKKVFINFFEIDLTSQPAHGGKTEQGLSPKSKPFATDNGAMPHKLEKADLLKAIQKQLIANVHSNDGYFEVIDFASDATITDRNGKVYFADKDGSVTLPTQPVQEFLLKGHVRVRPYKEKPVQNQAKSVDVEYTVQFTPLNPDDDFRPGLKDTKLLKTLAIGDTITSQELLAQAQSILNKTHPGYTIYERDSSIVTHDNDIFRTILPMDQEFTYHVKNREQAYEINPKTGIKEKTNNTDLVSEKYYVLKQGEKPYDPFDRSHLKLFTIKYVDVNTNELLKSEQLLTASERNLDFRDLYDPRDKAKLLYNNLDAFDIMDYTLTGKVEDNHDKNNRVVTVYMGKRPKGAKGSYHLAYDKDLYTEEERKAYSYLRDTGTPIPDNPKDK

Streptococcus = assay: Group A Streptococcus viability loss, dose response, counter-screen for streptokinase expression inhibitor project, luminescence, BacTiterGlo (AID 1915); assay type: functional, organism-based;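 note: potency for reduction of bacterial viability or growth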
Caspase-6 = target: T5, Caspase-6 (Homo sapiens, UniProt P55212); assay: human caspase-6 inhibitors, dose response, biochemical, VEID-R110 fluorescence, cherry-pick (AID 720632)
T5 sequence (P55212 whole entry): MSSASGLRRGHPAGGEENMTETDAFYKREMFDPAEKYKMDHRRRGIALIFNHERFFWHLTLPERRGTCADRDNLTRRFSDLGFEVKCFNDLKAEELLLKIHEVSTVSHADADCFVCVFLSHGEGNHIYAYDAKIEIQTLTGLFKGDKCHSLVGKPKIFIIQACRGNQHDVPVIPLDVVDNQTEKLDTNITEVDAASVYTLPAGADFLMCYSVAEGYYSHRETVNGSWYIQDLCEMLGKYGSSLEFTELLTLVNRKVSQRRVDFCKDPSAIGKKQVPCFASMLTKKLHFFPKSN

[30] = cytotoxicity toward NIH3T3 fibroblasts, dose response, counter-screen, cell-based, ATP luminescence, mouse fibroblasts (AID 2010); assay type: functional;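 note: cells exposed to compound for about 90 hours before reading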
X-box-binding protein 1 = X-box-binding protein 1 (Homo sapiens, UniProt P17861); assay type: functional, Cricetulus griseus;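 note: confirmatory dose-response counter-screen serving a CHOP assay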
X-box-binding protein 1, sequence (P17861 whole entry): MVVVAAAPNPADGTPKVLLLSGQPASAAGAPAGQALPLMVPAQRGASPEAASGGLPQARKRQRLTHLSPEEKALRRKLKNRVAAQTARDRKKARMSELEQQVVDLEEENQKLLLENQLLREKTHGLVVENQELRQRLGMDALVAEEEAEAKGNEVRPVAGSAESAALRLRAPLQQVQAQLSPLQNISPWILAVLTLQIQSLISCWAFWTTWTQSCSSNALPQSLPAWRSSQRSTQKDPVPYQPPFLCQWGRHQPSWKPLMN

[31] = miR-122 activators in hepatoma reporter cells, dose response, cell-based, Huh7 psiCHECK-miR122, Renilla luciferase, cherry-picked (AID 651956); assay type: functional;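 note: huh7 hepatoma cells stably carrying a psiCHECK-2 miR-122 sensor plasmid; renilla luciferase signal reporting endogenous miR-122 activity after 48 h compound exposure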
Vero [32] = assay: host cell cytotoxicity of antiviral hits, dose response, cytotoxicity control for West Nile virus antiviral project, secondary assay (AID 1650); assay type: functional; details: Chlorocebus sabaeus
[33] = inhibitors of intracellular T. cruzi replication, confirmation, NIH3T3 host cells, beta-gal luminescence (AID 2044); assay type: functional, cell-based;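 note: intracellular parasites grown in NIH/3T3 mouse fibroblasts as host cells; luminescent beta-galactosidase reporter signal from transgenic T. cruzi replicating inside host cells; inhibitors lower the luminescence signal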
[34] = target: DNA damage-inducible transcript 3 protein (Mus musculus, UniProt P35639); assay type: functional, Cricetulus griseus
DNA damage-inducible transcript 3 protein, sequence (P35639 whole entry): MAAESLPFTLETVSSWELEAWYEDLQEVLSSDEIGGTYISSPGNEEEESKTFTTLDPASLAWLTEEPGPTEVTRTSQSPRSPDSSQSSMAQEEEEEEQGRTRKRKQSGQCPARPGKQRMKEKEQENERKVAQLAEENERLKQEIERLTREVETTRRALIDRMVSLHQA

[35] = HEK293T cytotoxicity, dose response, cytotoxicity control for miR-122 modulator project, cell-based, inhibitor set, cherry-pick, set 2 (AID 720697); assay type: functional
[36] = HEK293T cytotoxicity, dose response, cytotoxicity control for miR-122 modulator project, cell-based, activator set, cherry-pick (AID 720690); assay type: functional;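 note: HEK293T human cells scored for general mammalian cytotoxicity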
Cysteine protease ATG4B = target: T6, Cysteine protease ATG4B (Homo sapiens, UniProt Q9Y4P1); assay type: functional;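 note: Fluorescence-based dose-response confirmation assay measuring inhibition of ATG4B activity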
T6 sequence (Q9Y4P1 whole entry): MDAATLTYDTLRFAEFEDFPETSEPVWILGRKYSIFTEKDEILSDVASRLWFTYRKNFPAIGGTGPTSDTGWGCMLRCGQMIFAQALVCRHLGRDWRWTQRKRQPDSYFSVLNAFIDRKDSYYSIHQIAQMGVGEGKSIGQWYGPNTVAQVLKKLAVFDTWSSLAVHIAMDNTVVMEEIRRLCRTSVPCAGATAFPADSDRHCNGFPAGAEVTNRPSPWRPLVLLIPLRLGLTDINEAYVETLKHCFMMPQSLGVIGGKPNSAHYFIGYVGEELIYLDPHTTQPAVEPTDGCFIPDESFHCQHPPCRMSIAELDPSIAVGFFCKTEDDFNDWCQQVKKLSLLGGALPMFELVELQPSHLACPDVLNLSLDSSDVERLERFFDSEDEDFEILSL

Phospholipase A2 = Phospholipase A2 (Homo sapiens, UniProt P04054); assay type: functional;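 note: confirmatory dose-response counterscreen on phospholipase A2, testing hits that came from an ultra-high-throughput screen for ATG4B inhibitors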
Phospholipase A2, sequence (P04054 whole entry): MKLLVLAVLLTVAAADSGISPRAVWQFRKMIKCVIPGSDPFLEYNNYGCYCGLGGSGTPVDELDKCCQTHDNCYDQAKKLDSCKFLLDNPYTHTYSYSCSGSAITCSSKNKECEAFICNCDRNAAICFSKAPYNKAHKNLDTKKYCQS

Voltage-gated inwardly rectifying potassium channel KCNH2, sequence (Q12809 whole entry): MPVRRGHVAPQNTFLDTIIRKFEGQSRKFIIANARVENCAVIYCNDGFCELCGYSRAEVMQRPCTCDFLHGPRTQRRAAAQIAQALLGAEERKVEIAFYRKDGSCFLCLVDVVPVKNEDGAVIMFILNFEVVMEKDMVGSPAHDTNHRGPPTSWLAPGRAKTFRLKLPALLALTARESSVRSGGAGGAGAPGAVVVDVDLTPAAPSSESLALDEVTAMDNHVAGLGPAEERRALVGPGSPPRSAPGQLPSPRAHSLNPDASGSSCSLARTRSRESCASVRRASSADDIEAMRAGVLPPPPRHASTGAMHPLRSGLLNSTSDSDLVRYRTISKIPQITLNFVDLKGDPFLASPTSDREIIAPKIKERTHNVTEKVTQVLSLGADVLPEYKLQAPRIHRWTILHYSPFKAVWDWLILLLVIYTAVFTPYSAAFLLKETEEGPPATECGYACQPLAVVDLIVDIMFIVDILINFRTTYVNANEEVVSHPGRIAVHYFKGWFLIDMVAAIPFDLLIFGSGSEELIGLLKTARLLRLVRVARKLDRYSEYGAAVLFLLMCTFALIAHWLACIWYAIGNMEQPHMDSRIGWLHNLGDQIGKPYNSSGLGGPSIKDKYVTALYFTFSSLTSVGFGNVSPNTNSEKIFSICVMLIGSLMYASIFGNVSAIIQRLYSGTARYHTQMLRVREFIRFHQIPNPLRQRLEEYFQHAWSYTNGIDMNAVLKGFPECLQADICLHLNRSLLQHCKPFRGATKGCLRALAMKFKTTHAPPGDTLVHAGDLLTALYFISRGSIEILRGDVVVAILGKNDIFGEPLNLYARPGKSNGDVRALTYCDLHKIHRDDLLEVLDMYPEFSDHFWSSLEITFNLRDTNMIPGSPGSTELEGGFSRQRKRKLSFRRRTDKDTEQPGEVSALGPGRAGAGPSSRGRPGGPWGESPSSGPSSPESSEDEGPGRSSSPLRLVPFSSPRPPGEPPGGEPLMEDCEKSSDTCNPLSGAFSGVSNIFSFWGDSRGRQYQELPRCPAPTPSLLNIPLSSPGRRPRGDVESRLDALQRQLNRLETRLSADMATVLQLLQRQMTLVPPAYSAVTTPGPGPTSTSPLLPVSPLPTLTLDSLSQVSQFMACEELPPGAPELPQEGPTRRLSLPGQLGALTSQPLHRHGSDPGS

O=C(CN1CCCCC1)Nc1cc(Cl)ccc1Cl
active: AC50 (Escherichia coli) 144 µM

N#CC(Cc1ccc(O)c(O)c1)C(=O)N1CCc2ccccc21 (centres undefined)
inconclusive: AC50 [1] 15.8 µM

O=C(CCNS(=O)(=O)c1ccc2nc(O)oc2c1)NCc1ccccc1
inactive: AC50 (CAAX prenyl protease 2) > 100 µM

O=C(Nc1nc2c(F)cc(F)cc2s1)c1ccccn1
> 32 µM: IC50 [7]
> 350 µM (not active): EC50 (cells [3])
> 150 µM (not active): EC50 (BJ [25])
inactive: IC50 (Protein skinhead-1) > 100 µM | EC50 (Beta-galactosidase [15]) > 31.5 µM | EC50 (Beta-galactosidase [21]) > 40 µM
active: AC50 [2] 15.2 µM | AC50 (INS1) 2.08 µM | EC50 (BJ [4]) 11.2 µM | CC50 [5] 2.12 µM | IC50 [6] 8.25 µM | IC50 [8] 9.46 µM | IC50 (Vero [9]) > 25 µM | IC50 (cells [10]) 0.42 µM | CC50 (Vero [11]) 7.89 µM | AC50 [12] 2.09 µM | CC50 [13] 2.14 µM | EC50 (BJ [14]) 78.2 µM | CC50 [16] 4.95 µM | AC50 [17] 2.21 µM | AC50 [18] 2.66 µM | AC50 [19] 6.69 µM | AC50 [20] 4.05 µM | EC50 (cells [22]) 7.18 µM | EC50 [23] 1.63 µM | AC50 [24] 10.8 µM | AC50 [26] 3.17 µM

CCOC(=O)C1(CC2CCCCO2)CCN(Cc2ccc(OC)cc2F)CC1 (centres undefined)
inactive: EC50 [27] > 92.5 µM | EC50 (Mu-type opioid receptor) > 92.5 µM | EC50 [28] > 92.5 µM

Cc1ccc(NNC(=O)c2cc(C(C)(C)C)nn2Cc2ccccc2)cc1
active: IC50 [8] 3.81 µM | EC50 [29] 17.5 µM | EC50 (Streptokinase A) 29.5 µM
inactive: EC50 (Beta-galactosidase [21]) > 40 µM
> 150 µM (not active): EC50 (Streptococcus)

Cc1csc(NC(=O)c2c(-c3c(Cl)cccc3Cl)noc2C)n1
active: AC50 (Escherichia coli) 32.8 µM

O=C(N/N=C/c1cn(Cc2ccccc2)c2ccccc12)c1cc(O)cc(O)c1
active: AC50 (Caspase-6) 3.09 µM | AC50 (CAAX prenyl protease 2) 12.6 µM

Clc1ccc2c(N/N=C/c3ccccc3Br)ccnc2c1
inactive: EC50 [27] > 92.5 µM | EC50 (Mu-type opioid receptor) > 92.5 µM | EC50 [28] > 92.5 µM
10 µM: Absolute IC50 (XBP1) (X-box-binding protein 1) | Absolute IC50 (CHOP) [34]
active: AC50 [31] 39.6 µM | CC50 (Vero [32]) 7.23 µM | EC50 [33] 1.02 µM | AC50 [35] 7.49 µM | AC50 [36] 16 µM | IC50 (Cysteine protease ATG4B) 3.17 µM | IC50 (Phospholipase A2) 1.75 µM
> 60 µM (not active): EC50 [30]
